According to patent US20050004227A1, “Cell growth inhibitor” (priority 2001, published 2005):
Where two headings read alike, the source gives them in different places.

Key:
Assay type in all cases: cell-based
[1] = tested on: human pancreatic cancer cell line AsPC-1; test: Cell growth inhibition of AsPC-1, MTS assay
Protocol: (§1) AT-264 was dissolved in RPMI1640—10 mM Hepes (hereinafter, abbreviated to ‘the medium’) containing 0.5% ethanol and 0.5% DMSO to prepare 2.5 mM AT-264 solution. Then, this solution was diluted with the medium to prepare 0.625 mM and 0.0625 mM AT-264 solutions.
A 5×10^4 cells/mL solution of human pancreatic cancer cell line AsPC-1 was prepared using a medium containing 50% FBS. This suspension was plated onto a 96-well plate pre-coated with Collagen type I at 40 μL/well (2×10^3 cells), and 160 μL of the AT-264 solution was added. This was cultured for six days in a CO2 incubator (on the second day of culturing, 100 units/mL penicillin and 0.1 mg/mL streptomycin were added). On the sixth day of culturing, the number of viable cells was quantified by MTS assay.

PepT1 = target: T1, PepT1 (Homo sapiens, UniProt P46059); test: Inhibition of [14C] glycylsarcosine uptake into Caco-2 cells
T1 construct: In Caco-2 cells, only PepT1 was expressed; endogenous in cells; host or cells: Caco-2 (human colon cancer cell line)
T1 sequence (P46059 1-708): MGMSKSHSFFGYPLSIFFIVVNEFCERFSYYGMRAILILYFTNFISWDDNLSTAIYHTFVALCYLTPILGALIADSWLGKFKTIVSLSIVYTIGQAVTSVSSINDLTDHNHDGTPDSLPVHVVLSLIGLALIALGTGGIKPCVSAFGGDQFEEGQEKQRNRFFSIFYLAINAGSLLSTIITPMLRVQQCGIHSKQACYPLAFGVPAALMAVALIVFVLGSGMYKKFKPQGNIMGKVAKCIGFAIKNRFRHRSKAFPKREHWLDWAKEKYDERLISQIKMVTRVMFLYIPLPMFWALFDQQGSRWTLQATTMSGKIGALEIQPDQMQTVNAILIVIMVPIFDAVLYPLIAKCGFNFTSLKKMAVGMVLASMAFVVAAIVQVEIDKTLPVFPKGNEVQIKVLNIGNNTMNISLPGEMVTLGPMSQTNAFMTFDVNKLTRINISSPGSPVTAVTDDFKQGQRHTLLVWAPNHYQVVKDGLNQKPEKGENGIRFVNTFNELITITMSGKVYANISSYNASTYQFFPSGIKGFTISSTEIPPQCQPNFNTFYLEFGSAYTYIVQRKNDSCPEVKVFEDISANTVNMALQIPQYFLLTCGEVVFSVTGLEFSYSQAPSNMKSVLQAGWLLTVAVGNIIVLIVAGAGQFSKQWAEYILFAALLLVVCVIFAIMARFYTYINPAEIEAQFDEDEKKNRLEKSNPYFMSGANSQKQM
Protocol: AT-264's ability to inhibit PepT was examined using a human colon cancer cell line (Caco-2 cells). The results were that the IC50 for uptake of radioactive substrate [^14C] glycylsarcosine into cells was 100 μM (FIG. 1). In Caco-2 cells, only PepT1 was expressed, and PepT1 function was considered to be inhibited by AT-264. The purity of AT-264 used in the present experiment was approximately 50% to 60%, and the actual IC50 was thought to be about 50 μM or so.

human PepT2 = target: T2, human PepT2 (Homo sapiens, UniProt Q16348); test: Inhibition of [3H] glycylsarcosine uptake into BaF3/PepT2 cells
T2 construct: expressed in transfected cells; host or cells: BaF3 (murine bone marrow-derived cell line)
T2 sequence (Q16348 1-729): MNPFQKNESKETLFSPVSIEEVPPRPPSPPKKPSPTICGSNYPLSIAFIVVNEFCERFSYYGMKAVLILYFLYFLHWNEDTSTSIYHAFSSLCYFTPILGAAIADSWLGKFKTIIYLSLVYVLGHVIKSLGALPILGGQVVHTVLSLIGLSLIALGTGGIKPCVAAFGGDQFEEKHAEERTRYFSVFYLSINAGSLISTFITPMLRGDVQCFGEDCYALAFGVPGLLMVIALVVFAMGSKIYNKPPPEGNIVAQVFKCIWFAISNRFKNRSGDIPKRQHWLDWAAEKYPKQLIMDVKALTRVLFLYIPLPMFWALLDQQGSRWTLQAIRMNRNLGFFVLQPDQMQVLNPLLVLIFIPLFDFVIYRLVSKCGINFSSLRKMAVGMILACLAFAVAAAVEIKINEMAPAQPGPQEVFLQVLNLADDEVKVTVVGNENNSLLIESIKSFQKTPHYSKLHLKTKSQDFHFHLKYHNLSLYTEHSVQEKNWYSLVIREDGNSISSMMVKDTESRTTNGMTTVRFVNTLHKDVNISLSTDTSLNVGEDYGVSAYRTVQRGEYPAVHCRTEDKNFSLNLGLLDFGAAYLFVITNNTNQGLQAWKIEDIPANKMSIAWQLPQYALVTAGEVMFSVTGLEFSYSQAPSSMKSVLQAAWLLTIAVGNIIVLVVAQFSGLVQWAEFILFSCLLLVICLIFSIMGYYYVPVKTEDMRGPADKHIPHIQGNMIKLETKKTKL
Excerpt: The ability of AT-264 to inhibit PepT2 was examined using a murine bone marrow-derived cell line BaF3 in which human PepT2 is forced to be expressed (hereinafter, abbreviated to BaF3/PepT2).

[2] = tested on: human pancreatic cancer cell line BxPC-3; test: Cell growth inhibition of BxPC-3, MTS assay
Protocol: as §1, with “Hepes with 100 units/mL penicillin and 0.1 mg/mL streptomycin” for “Hepes”, “Furthermore,” for “Then,”
5×10^4 cells/mL solution of BxPC-3 was prepared using the medium containing 50% FBS. This suspension was plated onto a 96-well plate pre-coated with Collagen type I at 40 μL/well (2×10^3 cells), and 160 μL of AT-264 solution was added. This was cultured for six days in a CO2 incubator, and on the sixth day of culturing, the number of viable cells was quantified by MTS assay.

IC50 (PepT1; AT-264 purity approximately 50% to 60%, read-out: IC50 for uptake of radioactive substrate [14C] glycylsarcosine into cells): 100 µM | IC50 (PepT1; estimated from purity of approximately 50% to 60%, read-out: actual IC50 (corrected for purity of AT-264)): ~50 µM
Compound: N=C(N)c1cccc(CC(NS(=O)(=O)NCc2cccc3ccccc23)C(=O)N2CCCCC2C(=O)O)c1 (stereo not drawn) [AT-264]
Cell growth inhibition ([1]; AsPC-1, 0.5 mM AT-264, six days culture): slight | inhibition at 2000 µM ([1]; Homo sapiens, ASPC1, 144 h, AsPC-1, 2 mM AT-264, six days culture): ~30% | Morphological changes to AsPC-1 under the microscope ([1]; in the presence of AT-264): not observed | uptake of radioactive substrate [3H] glycylsarcosine into cells (human PepT2): inhibited in a concentration-dependent manner | inhibition at 500 µM ([2]; Homo sapiens, 144 h, BxPC-3, 0.5 mM AT-264, six days culture): ~20% | inhibition at 2000 µM ([2]; Homo sapiens, 144 h, BxPC-3, 2 mM AT-264, six days culture): ~75% | Morphological changes to BxPC-3 under the microscope ([2]; in the presence of AT-264): not observed
